Measurements reported in PMC9079729, “Conservation of the conformational dynamics and ligand binding within M49 enzyme family” (RSC Advances, 2018).
Residues, ends and D or L forms follow the SMILES beside them.

What was measured:
CaDPP III = biological target: T1, CaDPP III (Caldithrix abyssi, UniProt H1XW48); test: Inhibition of DPP III hydrolysis of Arg2-2NA by tynorphin; type: biochemical; settings: substrate Arg2-2NA, from initial hydrolysis rates, eq. 1
T1 construct: made in house; host or cells: E. coli
T1 sequence (H1XW48 19-558): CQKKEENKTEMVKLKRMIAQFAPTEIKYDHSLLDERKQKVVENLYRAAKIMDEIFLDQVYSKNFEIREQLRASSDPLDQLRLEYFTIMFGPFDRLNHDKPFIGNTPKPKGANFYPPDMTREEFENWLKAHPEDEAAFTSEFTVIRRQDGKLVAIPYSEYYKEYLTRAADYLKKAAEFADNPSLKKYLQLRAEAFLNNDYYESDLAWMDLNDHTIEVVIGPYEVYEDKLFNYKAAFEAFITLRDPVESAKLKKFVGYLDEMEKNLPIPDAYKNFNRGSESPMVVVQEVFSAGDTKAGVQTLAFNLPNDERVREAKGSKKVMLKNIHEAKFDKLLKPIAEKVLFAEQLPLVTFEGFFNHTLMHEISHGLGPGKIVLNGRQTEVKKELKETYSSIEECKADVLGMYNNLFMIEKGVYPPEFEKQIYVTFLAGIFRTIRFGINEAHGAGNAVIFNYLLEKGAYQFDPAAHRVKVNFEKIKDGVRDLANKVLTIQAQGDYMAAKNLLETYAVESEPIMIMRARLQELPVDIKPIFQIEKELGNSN
Protocol: The Km values for hydrolysis of fluorogenic substrate Arg2-2NA were determined at pH 7.4 (20 mM Tris–HCl buffer) and at 25 °C, from the initial reaction rates as previously described.[26]
Enzyme inhibition studies with tynorphin were performed using the Arg2-2NA as a substrate, according to Baršun et al.[36] The inhibition constant, Ki, was calculated according to the equation:1 Ki = i/(v0/vi − 1)·Km/(Km + s)where v0 and vi are the initial hydrolysis rates of Arg2-2NA (given in concentration s) catalyzed by DPP III in the absence and presence of inhibitor concentration (i), and Km is the Michaelis constant.

BtDPP III = biological target: T2, BtDPP III (Bacteroides thetaiotaomicron, UniProt Q8A6N1); test: as above; type: biochemical; settings: substrate Arg2-2NA, from initial hydrolysis rates, eq. 1
T2 construct: made in house; host or cells: E. coli
T2 sequence (Q8A6N1 entry or part of it, change not shown): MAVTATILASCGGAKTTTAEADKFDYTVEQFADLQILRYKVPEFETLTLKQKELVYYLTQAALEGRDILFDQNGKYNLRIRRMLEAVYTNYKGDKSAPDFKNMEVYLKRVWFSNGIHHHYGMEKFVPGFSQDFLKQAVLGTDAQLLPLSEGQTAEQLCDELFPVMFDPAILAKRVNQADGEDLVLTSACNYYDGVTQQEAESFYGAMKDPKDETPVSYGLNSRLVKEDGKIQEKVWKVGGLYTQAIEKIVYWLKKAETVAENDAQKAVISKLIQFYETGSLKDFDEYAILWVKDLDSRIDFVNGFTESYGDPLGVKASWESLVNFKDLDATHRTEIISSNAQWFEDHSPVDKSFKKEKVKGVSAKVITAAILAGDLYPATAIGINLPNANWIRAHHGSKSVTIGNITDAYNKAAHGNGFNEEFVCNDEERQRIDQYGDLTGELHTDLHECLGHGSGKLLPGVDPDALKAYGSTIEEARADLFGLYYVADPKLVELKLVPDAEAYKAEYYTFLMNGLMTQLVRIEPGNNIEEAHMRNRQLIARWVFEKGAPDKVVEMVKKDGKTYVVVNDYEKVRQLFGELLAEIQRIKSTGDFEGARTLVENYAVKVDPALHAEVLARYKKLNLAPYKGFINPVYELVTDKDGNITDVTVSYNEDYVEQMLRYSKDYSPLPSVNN

## CC(C)[C@H](N)C(=O)N[C@H](C(=O)N[C@@H](Cc1ccc(O)cc1)C(=O)N1CCC[C@H]1C(=O)N[C@@H](Cc1c[nH]c2ccccc12)C(=O)O)C(C)C [tynorphin] (H-VVYPW-OH)
CaDPP III
  Ki: 16.8 µM
BtDPP III
  Ki: 0.98 µM
